Test results reported in patent US20200392075A1, “COMPOSITIONS AND METHODS FOR TREATMENT OF INSULIN RESISTANCE” (Temple University - Of The Commonwealth System Of Higher …, priority 2018, published 2020).

What was measured:
GLUT4 = target: T1, GLUT4 (Homo sapiens, UniProt P14672); assay: HNE-induced GLUT4 carbonylation (K264-HNE adduct) by MRM in 3T3-L1 adipocytes overexpressing GLUT4-SNAP; assay type: cell-based; details: 20 μM for 4 hour, 3T3-L1 cells overexpressing GLUT4
T1 construct: SNAP (SNAP-tag fusion partner); expressed in transfected cells; host or cells: 3T3-L1 adipocytes, retrovirally transduced
T1 sequence (P14672 1-509): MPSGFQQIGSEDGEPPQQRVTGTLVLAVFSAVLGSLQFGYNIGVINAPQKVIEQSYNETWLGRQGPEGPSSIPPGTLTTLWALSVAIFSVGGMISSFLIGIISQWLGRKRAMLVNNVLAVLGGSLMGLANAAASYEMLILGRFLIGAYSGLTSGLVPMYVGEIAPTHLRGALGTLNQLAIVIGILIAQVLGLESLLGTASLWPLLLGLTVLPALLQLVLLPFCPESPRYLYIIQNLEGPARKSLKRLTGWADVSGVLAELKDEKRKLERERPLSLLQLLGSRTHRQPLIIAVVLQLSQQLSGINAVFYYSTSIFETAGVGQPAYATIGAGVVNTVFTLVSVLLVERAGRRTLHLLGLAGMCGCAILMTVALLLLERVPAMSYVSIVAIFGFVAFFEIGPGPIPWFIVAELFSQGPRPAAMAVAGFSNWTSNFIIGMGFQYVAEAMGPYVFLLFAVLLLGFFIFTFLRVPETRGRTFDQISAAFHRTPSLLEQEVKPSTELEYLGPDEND
Experimental: A GLUT4-SNAP fusion construct is generated. 3T3-L1 adipocytes were then retrovirally transduced with the construct to overexpress the GLUT4-SNAP protein. Twenty-four hours after the transduction, the cells were treated with and without 20 μM of 4-HNE for an additional 4 hours. This 4-HNE dose is chosen because it is similar to the physiological levels and is non-toxic. In order to identify and quantitate GLUT4 carbonylation (K264 NHE-adduct or R265 and R246 glutamic semialdehyde adducts), a mass spectroscopy-based multiple reaction monitoring (MRM) method is developed and validated.
[…] of the GLUT4 peptide found in humans were used for quantitation.

3T3-L1 adipocytes = assay: Insulin-induced glucose uptake by 3T3-L1 adipocytes after 4-HNE / H2O2 treatment (MRM); assay type: cell-based, mouse; details: 500 μM for 4 hour, then 100 nM insulin for 60 minutes
Experimental: 3T3-L adipocytes (1×10^6) were treated with either 500 μM of 4-HNE or H2O2 or combination of both for 4 hour and were then stimulated with 100 nM insulin for 60 minutes. The glucose uptake is measured by a specific MRM method.

| SMILES | formation of the K264-HNE adduct (GLUT4 carbonylation) (GLUT4) | reduction of insulin-induced glucose uptake (3T3-L1 adipocytes) |
| --- | --- | --- |
| CCCCCC(O)/C=C/C=O (stereo not drawn) [Example 4-HNE, 4-hydroxynonenal] | induced the formation of the K264-HNE adduct | 32% |
| OO [Example H2O2] |  | 66% |
